From patent US6673793B2, “Oxazinoquinolones useful for the treatment of viral infections” (Pharmacia & Upjohn Co., priority 2000, dated 2004)
pIC50: −log10 of the molar value.

Experiments:
CMV polymerase = target: T1, CMV polymerase (Human cytomegalovirus, UniProt P08546); experiment: HCMV polymerase assay, scintillation proximity assay (SPA), modified version; assay type: biochemical; conditions: modified HCMV polymerase SPA assay: compounds diluted in 100% DMSO, 4.5 mM DTT in polymerase buffer, different lot of CMV polymerase; read-out: CMV polymerase IC50
T1 construct: made in house; host or cells: recombinant baculovirus-infected SF-9 cells
T1 sequence (P08546 whole entry): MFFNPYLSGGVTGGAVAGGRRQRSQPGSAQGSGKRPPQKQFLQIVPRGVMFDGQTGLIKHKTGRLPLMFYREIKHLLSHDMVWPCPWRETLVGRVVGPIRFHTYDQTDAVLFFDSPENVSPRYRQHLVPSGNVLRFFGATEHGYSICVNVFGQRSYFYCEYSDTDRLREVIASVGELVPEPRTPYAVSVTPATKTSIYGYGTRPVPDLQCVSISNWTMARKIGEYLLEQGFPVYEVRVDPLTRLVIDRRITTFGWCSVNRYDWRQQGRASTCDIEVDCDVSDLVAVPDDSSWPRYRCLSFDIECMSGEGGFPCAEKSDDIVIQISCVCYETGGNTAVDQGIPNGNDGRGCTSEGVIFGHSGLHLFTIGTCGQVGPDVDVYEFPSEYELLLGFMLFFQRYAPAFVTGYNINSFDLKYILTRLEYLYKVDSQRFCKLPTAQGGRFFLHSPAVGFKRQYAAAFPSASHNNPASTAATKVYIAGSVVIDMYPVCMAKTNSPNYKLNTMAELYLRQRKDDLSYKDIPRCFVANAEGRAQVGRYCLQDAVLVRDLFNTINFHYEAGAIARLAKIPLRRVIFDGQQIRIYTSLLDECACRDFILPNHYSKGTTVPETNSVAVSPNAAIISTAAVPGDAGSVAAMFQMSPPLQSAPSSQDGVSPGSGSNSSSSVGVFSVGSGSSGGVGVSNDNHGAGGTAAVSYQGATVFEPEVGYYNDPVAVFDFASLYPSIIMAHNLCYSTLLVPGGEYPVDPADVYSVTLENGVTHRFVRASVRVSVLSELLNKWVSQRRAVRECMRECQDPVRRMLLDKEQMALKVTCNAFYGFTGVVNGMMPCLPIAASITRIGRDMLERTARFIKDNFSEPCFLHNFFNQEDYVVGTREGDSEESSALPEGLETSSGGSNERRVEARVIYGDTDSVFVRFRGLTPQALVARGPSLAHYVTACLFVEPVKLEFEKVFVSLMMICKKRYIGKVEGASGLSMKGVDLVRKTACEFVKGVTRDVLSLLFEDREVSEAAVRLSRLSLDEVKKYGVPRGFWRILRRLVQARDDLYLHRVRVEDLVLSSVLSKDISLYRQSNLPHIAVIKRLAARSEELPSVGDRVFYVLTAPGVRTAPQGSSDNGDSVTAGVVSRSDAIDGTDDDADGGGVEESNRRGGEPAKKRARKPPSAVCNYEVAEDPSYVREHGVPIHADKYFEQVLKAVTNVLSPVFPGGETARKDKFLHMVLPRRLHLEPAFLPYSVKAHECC
Protocol: The HCMV polymerase assay is performed using a scintillation proximity assay (SPA) as described in several references, such as N. D. Cook, et al., Pharmaceutical Manufacturing International, pages 49-53 (1992); K. Takeuchi, Laboratory Practice, September issue (1992); U.S. Pat. No. 4,568,649 (1986); which are incorporated by reference herein. Reactions are performed in 96-well plates. The assay is conducted in 100 μl volume with 5.4 mM HEPES (pH 7.5), 11.7 mM KCl, 4.5 mM MgCl2, 0.36 mg/ml BSA, and 90 nM ^3H-dTTP. Assays are run with and without CHAPS, (3-[(3-Cholamidopropyl)-dimethylammonio]-1-propane-sulfonate) at a final concentration of 2 mM. HCMV polymerase is diluted in enzyme dilution buffer containing 50% glycerol, 250 mM NaCl, 10 mM HEPES (pH 7.5), 100 μg/ml BSA, and 0.01% sodium azide. The HCMV polymerase, which is expressed in recombinant baculovirus-infected SF-9 cells and purified according to literature procedures, is added at 10% (or 10 μl) of the final reaction volume, i.e., 100 μl. Compounds are diluted in 50% DMSO and 10 μl are added to each well. Control wells contain an equivalent concentration of DMSO. Unless noted otherwise, reactions are initiated via the addition of 6 nM biotinylated poly(dA)-oligo(dT) template/primer to reaction mixtures containing the enzyme, substrate, and compounds of interest. Plates are incubated in a 25 C. or 37 C. H2O bath and terminated via the addition of 40 μl/reaction of 0.5 M EDTA (pH 8) per well. Reactions are terminated within the time-frame during which substrate incorporation is linear and varied depending upon the enzyme and conditions used, i.e., 30 min. for HCMV polymerase. Ten μl of streptavidin-SPA beads (20 mg/ml in PBS/10% glycerol) are added following termination of the reaction. Plates are incubated 10 min. at 37 C., then equilibrated to room temperature, and counted on a Packard Topcount. Linear regressions are performed and IC50's are calculated using computer software.
A modified version of the above HCMV polymerase assay is performed as described above, but with the following changes: Compounds are diluted in 100% DMSO until final dilution into assay buffer. In the previous assay, compounds are diluted in 50% DMSO. 4.5 mM dithiotherotol (DTT) is added to the polymerase buffer.

Row | Compound | pIC50 (CMV polymerase) | melting point
1 | O=C(NCc1ccc(Cl)cc1)c1cn2c3c(cc(CN4CCOCC4)cc3c1=O)OC(CN1CCOCC1)C2 (stereo not drawn) [Example 2, N-(4-Chlorobenzyl)-2,9-bis(4-morpholinylmethyl)-7-oxo-2,3-dihydro-7H-[1,4]oxazino[2,3,4-ij]quinoline-6-carboxamide] | 6.12 | 178 to 180 °C
2 | CN(C)CC1Cn2cc(C(=O)NCc3ccc(Cl)cc3)c(=O)c3cc(CN4CCOCC4)cc(c32)O1 (stereo not drawn) [Example 3, N-(4-Chlorobenzyl)-2-[(dimethylamino)methyl]-9-(4-morpholinylmethyl)-7-oxo-2,3-dihydro-7H-[1,4]oxazino[2,3,4-ij]quinoline-6-carboxamide] | 6.12 | 168 to 170 °C
3 | CN1CCN(CC2Cn3cc(C(=O)NCc4ccc(Cl)cc4)c(=O)c4cc(CN5CCOCC5)cc(c43)O2)CC1 (stereo not drawn) [Example 4, N-(4-Chlorobenzyl)-2-[(4-methyl-1-piperazinyl)methyl]-9-(4-morpholinylmethyl)-7-oxo-2,3-dihydro-7H-[1,4]oxazino[2,3,4-ij]quinoline-6-carboxamide] | 5.89 | 201 to 208 °C (dec.)
4 | O=C(NCc1ccc(Cl)cc1)c1cn2c3c(cc(CN4CCOCC4)cc3c1=O)OC(CN1CCCC1)C2 (stereo not drawn) [Example 5, N-(4-Chlorobenzyl)-9-(4-morpholinylmethyl)-7-oxo-2-(1-pyrrolidinylmethyl)-2,3-dihydro-7H-[1,4]oxazino[2,3,4-ij]quinoline-6-carboxamide] | 5.96 | 209.5 to 212 °C
5 | O=C(NCc1ccc(Cl)cc1)c1cn2c3c(cc(CN4CCOCC4)cc3c1=O)OC(CN1CCCCC1)C2 (stereo not drawn) [Example 8, N-(4-Chlorobenzyl)-9-(4-morpholinylmethyl)-7-oxo-2-(1-piperidinylmethyl)-2,3-dihydro-7H-[1,4]oxazino[2,3,4-ij]quinoline-6-carboxamide] | 5.82 | 213 to 215 °C
6 | O=C(NCc1ccc(Cl)cc1)c1cn2c3c(cc(CN4CCOCC4)cc3c1=O)OC(CNCc1ccncc1)C2 (stereo not drawn) [Example 12, N-(4-Chlorobenzyl)-9-(4-morpholinylmethyl)-7-oxo-2-{[(4-pyridinylmethyl)amino]methyl}-2,3-dihydro-7H-[1,4]oxazino[2,3,4-ij]quinoline-6-carboxamide] | 6.23 | 164 to 167 °C
7 | O=C(NCc1ccc(Cl)cc1)c1cn2c3c(cc(CN4CCOCC4)cc3c1=O)OC(Cn1ccnc1)C2 (stereo not drawn) [Example 13, N-(4-Chlorobenzyl)-2-(1H-imidazol-1-ylmethyl)-9-(4-morpholinylmethyl)-7-oxo-2,3-dihydro-7H-[1,4]oxazino[2,3,4-ij]quinoline-6-carboxamide] | 6.23 | 217 to 219 °C (dec.)
8 | CSCC1Cn2cc(C(=O)NCc3ccc(Cl)cc3)c(=O)c3cc(CN4CCOCC4)cc(c32)O1 (stereo not drawn) [Example 14, N-(4-Chlorobenzyl)-2-[(methylsulfanyl)methyl]-9-(4-morpholinylmethyl)-7-oxo-2,3-dihydro-7H-[1,4]oxazino[2,3,4-ij]quinoline-6-carboxamide] | 6.26 | 190 to 191 °C
9 | CC(C)(C)SCC1Cn2cc(C(=O)NCc3ccc(Cl)cc3)c(=O)c3cc(CN4CCOCC4)cc(c32)O1 (stereo not drawn) [Example 15, 2-[(tert-Butylsulfanyl)methyl]-N-(4-chlorobenzyl)-9-(4-morpholinylmethyl)-7-oxo-2,3-dihydro-7H-[1,4]oxazino[2,3,4-ij]quinoline-6-carboxamide] | 6.38 | 198 to 201 °C
10 | COC(=O)CSCC1Cn2cc(C(=O)NCc3ccc(Cl)cc3)c(=O)c3cc(CN4CCOCC4)cc(c32)O1 (stereo not drawn) [Example 18, Methyl ({[6-{[(4-chlorobenzyl)amino]carbonyl}-9-(4-morpholinylmethyl)-7-oxo-2,3-dihydro-7H-[1,4]oxazino[2,3,4-ij]quinolin-2-yl]methyl}sulfanyl)acetate] | 6.24 | 182.5 to 183 °C
11 | CC(=O)OCC1Cn2cc(C(=O)NCc3ccc(Cl)cc3)c(=O)c3cc(CN4CCOCC4)cc(c32)O1 (stereo not drawn) [Example 24, [6-{[(4-Chlorobenzyl)amino]carbonyl}-9-(4-morpholinylmethyl)-7-oxo-2,3-dihydro-7H-[1,4]oxazino[2,3,4-ij]quinolin-2-yl]methyl acetate] | 6.13 | 215 to 218 °C
12 | O=C(NCc1ccc(Cl)cc1)c1cn2c3c(cc(CN4CCOCC4)cc3c1=O)OC(F)(F)C2 [Example 28, N-(4-Chlorobenzyl)-2,2-difluoro-9-(4-morpholinylmethyl)-7-oxo-2,3-dihydro-7H-[1,4]oxazino[2,3,4-ij]quinoline-6-carboxamide] | 6.22 | 213.5 to 216.5 °C
13 | O=C(NCc1ccc(Cl)cc1)c1cn2c3c(cc(CN4CCOCC4)cc3c1=O)OC(c1cccnc1)C2 (stereo not drawn) [Example 34, N-(4-Chlorobenzyl)-9-(4-morpholinylmethyl)-7-oxo-2-(3-pyridinyl)-2,3-dihydro-7H-[1,4]oxazino[2,3,4-ij]quinoline-6-carboxamide] | 6.32 | 

The next lines start with the values.

Row | pIC50 (CMV polymerase) | melting point | Compound
14 | 6.21 |  | O=C(NCc1ccc(Cl)cc1)c1cn2c3c(cc(CN4CCOCC4)cc3c1=O)OC(c1ccncc1)C2 (stereo not drawn) [Example 35, N-(4-Chlorobenzyl)-9-(4-morpholinylmethyl)-7-oxo-2-(4-pyridinyl)-2,3-dihydro-7H-[1,4]oxazino[2,3,4-ij]quinoline-6-carboxamide]
15 | 6.38 |  | N#Cc1cccc(C2Cn3cc(C(=O)NCc4ccc(Cl)cc4)c(=O)c4cc(CN5CCOCC5)cc(c43)O2)c1 (stereo not drawn) [Example 36, N-(4-Chlorobenzyl)-2-(3-cyanophenyl)-9-(morpholin-4-ylmethyl)-7-oxo-2,3-dihydro-7H-[1,4]oxazino[2,3,4-ij]quinoline-6-carboxamide]
16 | 6.42 | 193 to 196 °C | O=C(NCc1ccc(Cl)cc1)c1cn2c3c(cc(CN4CCOCC4)cc3c1=O)OC(c1ccoc1)C2 (stereo not drawn) [Example 37, N-(4-Chlorobenzyl)-2-(3-furyl)-9-(morpholin-4-ylmethyl)-7-oxo-2,3-dihydro-7H-[1,4]oxazino[2,3,4-ij]quinoline-6-carboxamide]
17 | 6.34 |  | O=C(NCc1ccc(Cl)cc1)c1cn2c3c(cc(CN4CCOCC4)cc3c1=O)OC(c1cccs1)C2 (stereo not drawn) [Example 38, N-(4-Chlorobenzyl)-9-(morpholin-4-ylmethyl)-7-oxo-2-thien-2-yl-2,3-dihydro-7H-[1,4]oxazino[2,3,4-ij]quinoline-6-carboxamide]
18 | 6.18 |  | O=C(NCc1ccc(Cl)cc1)c1cn2c3c(cc(CN4CCOCC4)cc3c1=O)OC(CNCc1ccc(Cl)cc1)C2 (stereo not drawn) [Example 56, N-(4-Chlorobenzyl)-2-{[(4-chlorobenzyl)amino]methyl}-9-(morpholin-4-ylmethyl)-7-oxo-2,3-dihydro-7H-[1,4]oxazino[2,3,4-ij]quinoline-6-carboxamide]
19 | 5.98 |  | COCOc1ccccc1C1Cn2cc(C(=O)NCc3ccc(Cl)cc3)c(=O)c3cc(CN4CCOCC4)cc(c32)O1 (stereo not drawn) [Example 64, N-(4-Chlorobenzyl)-2-[2-(methoxymethoxy)phenyl]-9-(morpholin-4-ylmethyl)-7-oxo-2,3-dihydro-7H-[1,4]oxazino[2,3,4-ij]quinoline-6-carboxamide]
20 | 6.09 |  | O=C(NCc1ccc(Cl)cc1)c1cn2c3c(cc(CN4CCOCC4)cc3c1=O)OC(c1ccccc1O)C2 (stereo not drawn) [Example 68, N-(4-Chlorobenzyl)-2-(2-hydroxyphenyl)-9-(morpholin-4-ylmethyl)-7-oxo-2,3-dihydro-7H-[1,4]oxazino[2,3,4-ij]quinoline-6-carboxamide]
